Assay results: patent US20250302817A1, “METHODS FOR TREATING PTEN-MUTANT TUMORS” (Icahn School of Medicine at Mount Sinai, priority 2016, published 2025)
Where two headings read alike, the source gives them in different places.

Tests used:
[1] = multiple sclerosis patients, cited from earlier work; for Alopecia / Arthralgia / Diarrhea / Headache / Nausea / Neutropenia / Parathesia: all grades
[2] = biological target: T1, CYP2C8 (Homo sapiens, UniProt P10632); conditions: repeated doses of teriflunomide, single dose of 0.25 mg repaglinide; cited from earlier work
T1 construct: host or cells: human subjects, in vivo

[3] = in vivo; cited from earlier work
[4] = test system: MCCL-357 and MCCL-278 cells; assay: RPA and gamma-H2AX co-staining by flow cytometry; format: cell-based, mouse
Description: (§1) FIG. 4A is a graph showing positively-stained cells labeled with a gamma-H2AX antibody; cells were analyzed by flow cytometry (Student's t-test, *p<0.05, n=3). […] The mean fluorescence intensity (MFI) was determined using flow cytometry (Student's t-test, *p<0.01, n=3). FIG. 4C is a series of representative photographs showing MEFs treated with 150 μM A771726 for 24 h and labeled with EdU and gamma-H2AX. Left: representative confocal microscopy images. Right: quantified EdU and gamma-H2AX colocalized foci (Student's t-test, *p<0.05, n=3). […] Left: representative confocal microscopy images. Right: quantification of the number of foci per cell (Student's t-test, p>0.05, n=6). FIG. 4E is a graph showing the percentage of cells treated with 150 μM A771726 for times indicated and labeled with antibodies to RPA and gamma-H2AX positively staining for RPA alone or both RPA and gamma-H2AX; cells were analyzed by flow cytometry (Student's t-test, *p<0.05, n=4). […] FIGS. 4G and 4H are graphs quantifying the number of chromosomal breaks and multiradial formations per haploid genome (Student's t-test, *p-values on figure, cells scored/replicate>100). […]
FIG. 10D is a bar graph showing a quantitative depiction of the percent cell area with EdU-staining from images in FIG. 4D, used to normalize foci to cell size (Student's t-test, p>0.05, not significant, n=6). […] Cells were treated with A771726 for times indicated and co-stained with antibodies to RPA and gamma-H2AX; cells were analyzed by flow cytometry (n=4). […] FIG. 10H is a bar graph showing a quantitative depiction of the percent of abnormal […] in MCCL-278 and MCCL-357 breast cells treated with 50 or 100 μM A771726 or vehicle (Student's t-test, *p<0.01). […] Pulverized chromosomes could not be quantified due to the very high number of fragments.
The FlowCellect™ Cell Cycle Checkpoint H2A.X DNA Damage Kit (Millipore FCCH12542) was used according to the instructions provided in the kit. […] (Propidium iodide was not used in this setting.) Fluorescence was measured on a Guava® flow cytometer.

[5] = test system: MCCL-357 and MCCL-278 cells; assay: Karyotyping (chromosomal analysis); format: cell-based, mouse; conditions: A771726, by 48 h; MCCL-357 compared to MCCL-278
Description: as §1
FIG. 10D is a bar graph showing a quantitative depiction of the percent cell area with EdU-staining from images in FIG. 4D, used to normalize foci to cell size (Student's t-test, p>0.05, not significant, n=6). […]

[6] = biological target: T2, CYP2B6 (Homo sapiens, UniProt P20813); conditions: in vivo; cited from earlier work
T2 construct: host or cells: human subjects, in vivo

[7] = test system: Pten^−/− and WT MEFs; assay: Drug response assay (GI50 dose titration) in Pten WT and KO MEFs; format: cell-based, mouse; conditions: GI50 dose titration (FIG. 2A)
Description: FIG. 2F is a graph comparing various human breast cancer cell line growth rates. FIG. 2G is a series of immunoblots of pAKT in nuclear fractions of Pten^−/− and Pik3ca mutant MEFs. […] Data shown as mean+SD.
1500 cells per well (mouse cells) or 3000 cells per well (human cells) were plated in 96-well plates (Corning 720089). Growth rates were determined using the phase-confluency readings on an IncuCyte ZOOM (Essen Biosciences) on live cells over time.
Cells were plated in 96-well plates at a density of 1500 or 3000 cells per well. […] Sensitivity was determined by a dose-response titration for each cell line, with an equivalent amount of DMSO in each well. For cell death assays, DRAQ7™ (Cell Signaling 7406S) was added to the media at a 1:200 dilution and red fluorescence was measured in addition to phase in live-cell imaging to measure accumulation of dead cells. An IncuCyte ZOOM was used.

[8] = biological target: T3, CYP2D6 (Homo sapiens, UniProt P10635); conditions: in vivo; cited from earlier work
T3 construct: metoprolol (a CYP2D6 substrate); host or cells: human subjects, in vivo
T3 sequence (P10635 whole entry): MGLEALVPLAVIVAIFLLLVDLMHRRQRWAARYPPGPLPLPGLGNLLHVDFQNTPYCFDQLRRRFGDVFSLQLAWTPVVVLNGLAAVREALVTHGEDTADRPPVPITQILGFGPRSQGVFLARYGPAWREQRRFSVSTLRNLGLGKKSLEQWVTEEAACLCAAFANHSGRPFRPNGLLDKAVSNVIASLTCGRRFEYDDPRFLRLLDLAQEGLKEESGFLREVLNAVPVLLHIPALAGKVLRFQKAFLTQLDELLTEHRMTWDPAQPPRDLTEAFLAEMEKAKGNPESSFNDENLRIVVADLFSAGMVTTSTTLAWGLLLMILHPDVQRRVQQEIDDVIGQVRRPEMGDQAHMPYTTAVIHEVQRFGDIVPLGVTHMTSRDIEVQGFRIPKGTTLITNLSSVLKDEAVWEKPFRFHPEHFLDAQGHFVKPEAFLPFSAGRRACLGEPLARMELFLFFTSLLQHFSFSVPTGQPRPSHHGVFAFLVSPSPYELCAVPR

T1 sequence (P10632 whole entry): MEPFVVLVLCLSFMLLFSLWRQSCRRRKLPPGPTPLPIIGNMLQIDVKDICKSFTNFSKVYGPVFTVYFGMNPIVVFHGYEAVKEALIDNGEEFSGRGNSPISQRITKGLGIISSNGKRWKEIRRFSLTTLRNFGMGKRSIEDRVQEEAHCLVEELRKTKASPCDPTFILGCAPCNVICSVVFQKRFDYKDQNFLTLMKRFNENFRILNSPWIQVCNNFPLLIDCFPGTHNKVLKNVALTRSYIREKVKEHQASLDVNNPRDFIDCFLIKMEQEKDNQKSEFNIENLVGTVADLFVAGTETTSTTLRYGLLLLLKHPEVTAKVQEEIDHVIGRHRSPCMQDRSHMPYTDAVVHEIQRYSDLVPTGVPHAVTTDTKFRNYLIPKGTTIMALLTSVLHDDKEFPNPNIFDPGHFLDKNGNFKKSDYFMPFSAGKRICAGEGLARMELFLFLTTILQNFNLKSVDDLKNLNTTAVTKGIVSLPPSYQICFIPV
T2 sequence (P20813 whole entry): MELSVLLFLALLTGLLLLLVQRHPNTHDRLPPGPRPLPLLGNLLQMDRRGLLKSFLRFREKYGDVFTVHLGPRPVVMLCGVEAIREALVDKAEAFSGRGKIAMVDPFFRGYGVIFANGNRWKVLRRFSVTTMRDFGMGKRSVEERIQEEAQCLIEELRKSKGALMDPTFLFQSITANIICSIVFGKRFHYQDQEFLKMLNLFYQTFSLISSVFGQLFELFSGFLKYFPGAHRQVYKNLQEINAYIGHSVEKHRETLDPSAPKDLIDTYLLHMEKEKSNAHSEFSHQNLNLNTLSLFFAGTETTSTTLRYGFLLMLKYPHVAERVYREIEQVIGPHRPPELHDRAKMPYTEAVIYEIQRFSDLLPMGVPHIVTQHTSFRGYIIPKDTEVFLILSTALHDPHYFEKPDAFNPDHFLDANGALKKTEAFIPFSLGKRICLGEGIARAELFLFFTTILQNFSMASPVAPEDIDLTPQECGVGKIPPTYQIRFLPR

C/C(O)=C(\C#N)C(=O)Nc1ccc(C(F)(F)F)cc1 [teriflunomide, (Z)-2-Cyano-3-hydroxy-but-2-enoic acid-(4trifluoromethylphenyl)-amide]
Alopecia ([1]; 7 mg/day (n = 1045)): 10% | Arthralgia ([1]; 7 mg/day (n = 1045)): 8% | Diarrhea ([1]; 7 mg/day (n = 1045)): 13% | Headache ([1]; 7 mg/day (n = 1045)): 18% | Nausea ([1]; 7 mg/day (n = 1045)): 8% | Neutropenia ([1]; 7 mg/day (n = 1045)): 4% | Parathesia ([1]; 7 mg/day (n = 1045)): 8% | Elevated ALT, >3 × upper limit of normal ([1]; 7 mg/day (n = 1045)): 6% | Elevated ALT, serious adverse events leading to treatment withdrawal ([1]; 7 mg/day (n = 1045)): 3% | Hypertension (new onset) ([1]; 7 mg/day (n = 1045)): 3% | Peripheral Neuropathy, serious adverse events leading to treatment withdrawal ([1]; 7 mg/day (n = 1045)): 0.3% | Serious Infection ([1]; 7 mg/day (n = 1045)): 2% | Alopecia ([1]; 14 mg/day (n = 1002)): 13% | Arthralgia ([1]; 14 mg/day (n = 1002)): 6% | Diarrhea ([1]; 14 mg/day (n = 1002)): 14% | Headache ([1]; 14 mg/day (n = 1002)): 16% | Nausea ([1]; 14 mg/day (n = 1002)): 11% | Neutropenia ([1]; 14 mg/day (n = 1002)): 6% | Parathesia ([1]; 14 mg/day (n = 1002)): 9% | Elevated ALT, >3 × upper limit of normal ([1]; 14 mg/day (n = 1002)): 6% | Elevated ALT, serious adverse events leading to treatment withdrawal ([1]; 14 mg/day (n = 1002)): 3% | Hypertension (new onset) ([1]; 14 mg/day (n = 1002)): 4% | Peripheral Neuropathy, serious adverse events leading to treatment withdrawal ([1]; 14 mg/day (n = 1002)): 0.5% | Serious Infection ([1]; 14 mg/day (n = 1002)): 3% | increase in mean repaglinide AUC [2]: 2.4 fold | increase in mean repaglinide Cmax [2]: 1.7 fold | effect of rifampin on the pharmacokinetics of teriflunomide [3]: does not affect the pharmacokinetics | RPA and gamma-H2AX double-positive cells ([4]; 150 μM A771726, time course): shift toward both RPA and gamma-H2AX-positive cells in Pten^−/− MCCL-357 but not in Pten WT MCCL-278 cells | RPA signal ([4]; 150 μM A771726, regardless of PTEN genotype): increase in RPA signal | gamma-H2AX in relation to RPA staining ([4]; MCCL-357 cells treated with A771726): appeared almost exclusively in RPA-positive MCCL-357 cells | chromosome gaps, breaks, and multiradial formations [5]: greater number of chromosome gaps, breaks, and multiradial formations in MCCL-357 cells | effect on pharmacokinetics of bupropion (a CYP2B6 substrate) [6]: does not affect the pharmacokinetics | sensitivity of Pten^−/− MEFs compared with WT MEFs [7]: more sensitive | effect on pharmacokinetics of metoprolol (a CYP2D6 substrate) [8]: does not affect the pharmacokinetics
